The results in this text go back to patent US20100291009A1, “PREPARATION COMPRISING CHROMAN-2-ONE DERIVATIVES” (Merck Patent Gesellschaft Mit Beschrankter Haftung, priority 2008, published 2010).

The first assay addresses tyrosinase from fungi. The experiment in a line: Tyrosinase assay (L-DOPA as substrate). Type of assay: biochemical. The note with it: tyrosinase from fungi (16U), phosphate buffer pH 6.8, 25° C., optical density at 470 nm. The procedure: The action of the compounds I or Ia as skin lighteners is tested through their ability to inhibit the enzyme tyrosinase and thus to suppress melanin synthesis.
The inhibiting action of the compounds of the formula I or Ia against tyrosinase is assessed using tyrosinase from fungi and L-DOPA as substrate.
The compounds, as described in Examples 1 to 3 and the comparative compounds of Examples 10 and 11, and L-dopa are pre-incubated for 10 minutes at 25° C. in phosphate buffer (pH 6.8), and tyrosinase from fungi (16U) (Fluka) is subsequently added. The optical density of the samples is measured at 470 nm against a negative control (without active compound). Kojic acid is likewise tested as tyrosinase reference, i.e. positive control.
The results are shown in the following table, expressed in the IC50 value (the concentration of the test compound at which 50% of the tyrosinase activity is inhibited).
Take `Cc1cc(O)c(C)c2c1OC(=O)CC2(C)C` [Example 10, 6-hydroxy-4,4,5,8-tetramethylchroman-2-one]: the “IC50 (concentration of the test compound at which 50% of the tyrosinase activity is inhibited)” value is on record as “No inhibition”. Same read-out and setting: under `Cc1c(C)c2c(c(C)c1O)C(C)(C)CC(=O)O2` [Example 11, 6-hydroxy-4,4,5,7,8-pentamethylchroman-2-one] stands “No inhibition”.

The same assay, now with this note: tyrosinase from fungi (16U), phosphate buffer pH 6.8, 25° C., optical density at 470 nm, read-out: IC50 (concentration of the test compound at which 50% of the tyrosinase activity is inhibited).
Consider `CCc1cc2c(cc1O)OC(=O)CC2` [6-Ethyl-7-hydroxychroman-2-one, 6-ethyl-7-hydroxychroman-2-one], for which the IC50 came out at 336 µM. Same read-out and setting: under `CCCCCCc1cc2c(cc1O)OC(=O)CC2` [6-Hexyl-7-hydroxychroman-2-one, 6-hexyl-7-hydroxychroman-2-one] stands 25 µM; under `O=C1CCc2ccc(O)cc2O1` [7-Hydroxychroman-2-one, 7-hydroxychroman-2-one], 1000 µM; under `O=c1cc(CO)occ1O` [Kojic acid], 12 µM.
